Test results taken from publication PMC12476087, “Loading of Dicarboxylatoplatinum(II)‐NHC Complexes in Bacterial Ghosts as an Advanced Development in Cancer Therapy” (Archiv Der Pharmazie, 2025).

Experiments:
Assay type in all cases: cell-based
[1] = tested on: surface calreticulin on A2780wt cells; experiment: Immunofluorescent surface calreticulin staining, A2780wt; conditions: oxaliplatin at 1 µM for 24 h
Experimental: (§1) Oxaliplatin, a known metal‐based ICD inducer, was included for comparison.
(§2) A2780wt or A2780cis cells were seeded at a density of 1.2 × 10^5 on cover slips and allowed to adhere for 24 h. […] Subsequently, the cells were washed again three times with PBS and they were incubated after adding the secondary antibody (Alexa‐Fluor‐conjugated anti‐rabbit, 1:200), for 45 min at rt. Subsequently, the cells were washed again three times with PBS and they were mounted on slides with mounting medium. After letting them dry overnight, visualization was performed by spinning disk confocal microscopy. […] Acquired images were background subtracted, individual cells were manually segmented, and fluorescence intensity for the calreticulin staining was quantified with a FIJI software. Two repetitions of the experiment were performed, where at least 20 cells per condition were analyzed and the mean intensity of each sample was calculated, respectively.

[2] = tested on: surface calreticulin on A2780cis cells; experiment: Immunofluorescent surface calreticulin staining, A2780cis; conditions: oxaliplatin at 1 µM for 24 h
Experimental: as §1, §2

A2780wt cells [3] = experiment: MTT assay, A2780wt cells; conditions: MTT assay, 72 h exposure
Experimental: (§3) Carboplatin, a second‐generation platinum drug commonly used as part of standard first‐line chemotherapy for ovarian carcinoma, was examined as a reference compound due to its clinical relevance. Additionally, the nonmalignant bone marrow stromal cell line HS‐5 was included as a control to assess specificity of the complexes toward cancer cells.
(§4) Unloaded BGs (4 × 10^8 EcN or 2 × 10^8 Ec NM522, which is equivalent to the highest tested BG concentration) were tested as controls.
(§5) The exponentially growing cells were seeded at a density of 8 × 10^3 cells/well (A2780wt/cis) or 1 × 10^4 cells/well (HS‐5), respectively, into clear flat‐bottom 96‐well plates in triplicates. […] After another 72 h of incubation, the cellular metabolic activity was measured as an indicator of cell viability employing an MTT assay. Hereby, 20 µL of a 5 mg/mL MTT solution was added to each well, respectively. After 3 h of incubation, the medium was discarded, and the formazan crystals formed were dissolved in DMSO for 15 min with gentle shaking. […] The OD at 620 nm was subtracted from the OD at 595 nm. The OD of the medium was subtracted to exclude the unspecific staining caused by FCS‐containing medium. Cells treated with vehicle control (0.1% DMF) only were set at 100% metabolic activity. The IC50 values were calculated with Prism 8.0 (GraphPad Software Inc., Boston, MA, USA) using nonlinear regression. Significance was evaluated via a one sample t‐test performed with Prism 8.0.

A2780cis cells [4] = experiment: MTT assay, A2780cis cells
Experimental: as §3, §4, §5

HS‐5 cells = experiment: MTT assay, HS‐5 cells; conditions: 72 h exposure, nonmalignant bone marrow stromal cells
Experimental: as §3
The exponentially growing cells were seeded at a density of 8 × 10^3 cells/well (A2780wt/cis) or 1 × 10^4 cells/well (HS‐5), respectively, into clear flat‐bottom 96‐well plates in triplicates. Following 24 h of incubation for the adherence of the cells at 37°C in a humidified atmosphere (5% CO2/95% air), the test compounds were added. […] For the evaluation of the cell growth inhibition by the compounds loaded in BGs, the BG suspensions were directly diluted in RPMI 1640 to the desired testing concentration (25 µM). After another 72 h of incubation, the cellular metabolic activity was measured as an indicator of cell viability employing an MTT assay. Hereby, 20 µL of a 5 mg/mL MTT solution was added to each well, respectively. After 3 h of incubation, the medium was discarded, and the formazan crystals formed were dissolved in DMSO for 15 min with gentle shaking. Afterward, the optical density (OD) was measured at 595 and 620 nm, respectively on an EnSpire Multimode Plate Reader (revvity, Waltham, MA, USA). The OD at 620 nm was subtracted from the OD at 595 nm. The OD of the medium was subtracted to exclude the unspecific staining caused by FCS‐containing medium. Cells treated with vehicle control (0.1% DMF) only were set at 100% metabolic activity. The IC50 values were calculated with Prism 8.0 (GraphPad Software Inc., Boston, MA, USA) using nonlinear regression. Significance was evaluated via a one sample t‐test performed with Prism 8.0.

A2780wt cells [5] = experiment: Comet assay (intracellular DNA damage); conditions: 50 µM, 48 h incubation
Experimental: Given that platinum‐based drugs are known to commonly induce DNA damage, a comet assay was conducted using A2780wt cells. This assay detects DNA damage such as DNA single/double strand breaks and DNA fragmentation, a common feature of apoptosis. […] DMF (0.1%)‐treated cells were used as a negative control to establish baseline DNA integrity.
Cellular DNA damage can be visualized by employing a comet assay, which is a single cell gel electrophoresis assay. Hereby, A2780wt cells were seeded at a density of 2 × 10^6 into 25 cm^2 flasks. After letting the cells adhere for 24 h in a humidified atmosphere, the cell culture medium was exchanged for medium containing the respective compound. The cells were then incubated for 48 h with the platinum complexes or 4 h with etoposide, respectively. After incubation, the cell growth was stopped by removing the compound‐containing medium, washing the cells with phosphate‐buffered saline (PBS) and detaching them with a rubber policeman. The detached cells were then centrifuged at 700g for 2 min and the resulting pellet was then washed with 5 mL of PBS. After that, the cells were adjusted to a concentration of 1 × 10^6 cells/mL and were resuspended in ice cold PBS. A total of 75 µL of liquified agarose per condition was transferred onto the slide to create a base layer. This base layer was solidified by transferring the slide to 4°C for 15 min. Afterwards, 10 µL of the above‐mentioned cell suspension in PBS were mixed with 90 µL of agarose. A total of 75 µL of this was added to each base layer, respectively. This layer was also allowed to solidify at 4°C for 15 min. The slide was then transferred to a small basin which contained pre‐chilled lysis buffer (14.6 g NaCl, 20 mL EDTA solution, 10 mL lysis solution, 10 mL DMSO, 60 mL deionized H2O), where it remained for 45 min in the dark at 4°C. The lysis buffer was then aspirated and exchanged with a pre‐chilled alkaline solution (1.2 g NaOH, 0.2 mL EDTA solution, 100 mL deionized H2O), where it remained for further 30 min in the dark at 4°C. The slide was then transferred to a horizontal electrophoresis chamber which was filled with cold alkaline solution. The electrophoresis conditions were set to 1.5 V/cm and 300 mA for 20 min. After the electrophoresis, the slide was transferred into a small basin containing pre‐chilled, deionized H2O. After 2 min, the water was aspirated and this washing step was repeated twice more. After the final rinse, the slide was submerged in 70% ethanol for 5 min. Once the slide has dried, 100 µL of diluted Vista Green DNA Dye was added to each well. After 15 min of incubation, the slides were analyzed on an IX‐70 epifluorescence microscope (Olympus, Shinjuku, Japan) using a FITC filter.

A2780wt cells [6] = experiment: Annexin V/PI staining and FACS analysis, A2780wt; conditions: reference at 50 µM, 24 h
Experimental: (§6) Therefore, we aimed to evaluate the apoptosis and necrosis inducing potential of complexes 1–4 via a fluorescent‐activated cell sorting (FACS) analysis with Annexin V/propidium iodide (PI) staining in A2780wt and A2780cis cells. Cells were treated for 24 h with both the free and BG‐loaded forms of each compound at 25 µM. Carboplatin (50 µM) served as a reference.
(§7) To evaluate the mode of cell death, a FACS measurement after staining with Annexin V and PI was conducted. First, 0.3 × 10^6 A2780wt or A2780cis cells were seeded into 12‐well plates and were allowed to adhere for 24 h. The compounds were added at 25 µM, either diluted from a freshly prepared DMF stock solution (0.1% DMF) or freshly thawed when loaded in BGs. After 24 h of incubation, the cells were harvested with accutase and washed with PBS. The cells were then resuspended in 200 µL of PBS each and 1 µL of PI solution (Sigma‐Aldrich, Taufkirchen, Germany) and 1 µL of Annexin V‐FITC (MabTag GmbH, Friesoythe, Germany) were added to each sample. These were then incubated for 20 min at rt under light‐protected conditions and afterward transferred onto ice. The percentage of apoptotic cells was determined by analyzing Annexin V positive /PI negative cells using a BD LSRFortessa flow cytometer and BD FACSDiva software (both BD Biosciences, San Jose, CA, USA). The apoptosis analysis included the evaluation of early apoptosis (Annexin V positive/PI negative) and late apoptosis/necrosis (Annexin V positive /PI positive).

A2780cis cells [7] = experiment: Annexin V/PI staining and FACS analysis, A2780cis; conditions: reference at 50 µM, 24 h
Experimental: as §6, §7

| Compound | x‐fold intensity of surface calreticulin compared to untreated cells [1] [x‐fold] | x‐fold intensity of surface calreticulin compared to untreated cells [2] [x‐fold] | IC50 (A2780wt cells [3]) [µM] | Resistance factor RF = IC50(A2780cis)/IC50(A2780wt) (A2780cis cells [4]; 72 h) | IC50 (A2780cis cells [4]; 72 h exposure) [µM] | IC50 (HS‐5 cells) [µM] | intracellular DNA damage (comet formation) (A2780wt cells [5]) | early apoptosis (A2780wt cells [6]) | late apoptosis/ necrosis (A2780wt cells [6]) | early apoptosis (A2780cis cells [7]) | late apoptosis/ necrosis (A2780cis cells [7]) |
| --- | --- | --- | --- | --- | --- | --- | --- | --- | --- | --- | --- |
| O=C1[O][Pt]2([NH][C@@H]3CCCC[C@H]3[NH]2)[O]C1=O [oxaliplatin, (SP‐4‐2)‐(1R,2R‐diaminocyclohexane)oxalatoplatinum(II), reference compound] | 0.86 ± 0.24 | 1.36 ± 0.24 |  |  |  |  |  |  |  |  |  |
| [NH2][Pt]1([NH2])[O]C(=O)C2(CCC2)C(=O)[O]1 [Carboplatin, (SP‐4‐2)‐diammine(1,1‐cyclobutanedicarboxylato)platinum(II), reference compound] |  |  | 33.6 ± 2.1 | 3.1 | 104 ± 11.5 | 24.4 ± 0.99 | did not show any evidence of comet formation | 7.90 ± 0.29 | 16.8 ± 0.69 | 6.47 ± 1.75 | 12.6 ± 1.17 |
